Measured values reported in US9221870B2, “Crystal form of an organic compound and process for the preparation thereof” (Richter Gedeon Nyrt., priority 2009, dated 2015).
Values after ≈ are worked out from the molar mass of the structure shown.

Assays:
Assay type in all cases: physicochemical
[1] = Solubility at 25° C. in solvent (MeOH)
Description: Form I is a monotropic modification of CDB-4124 such as Form II. […] Furthermore, Form I can be transformed into Form II via crystallization from different medium.

[2] = Fast stability test (storage on a plate at 40° C. in air, impurity by HPLC); details: for Impurity / N-demethyl-derivative of CDB-4124: HPLC; for Impurity, Σ (increase Day 0 to Day 10) / N-demethyl-derivative of CDB-4124, Σ (increase Day 0 to Day 10): Σ over 10 days, in the presence of air
Experimental: Amorphous and crystalline forms were stored on a plate at 40° C. in the presence of air for 10 days. Impurity was measured at different times using an HPLC equipment. […]

[3] = Water adsorption by dynamic vapour sorption (DVS); details: 25° C., 0%-95% relative humidity, adsorption-desorption
Experimental: Water adsorption properties of the crystalline Form II of CDB-4124 were measured by dynamic vapour sorption technique (DVS). […]

SMILES: COCC(=O)[C@@]1(OC(C)=O)CC[C@H]2[C@@H]3CCC4=CC(=O)CCC4=C3[C@@H](c3ccc(N(C)C)cc3)C[C@@]21C [Form I, 17α-acetoxy-21-methoxy-11β-[4-N,N-dimethylaminophenyl]-19-norpregna-4,9-diene-3,20-dione, reference compound]
- solubility [1]: 500 mg/mL (≈ 989 mM)

SMILES: COCC(=O)[C@@]1(OC(C)=O)CC[C@H]2[C@@H]3CCC4=CC(=O)CCC4=C3[C@@H](c3ccc(N(C)C)cc3)C[C@@]21C [Form II, 17α-acetoxy-21-methoxy-11β-[4-N,N-dimethylaminophenyl]-19-norpregna-4,9-diene-3,20-dione]
- solubility [1]: 23 mg/mL (≈ 45.5 mM)
- Impurity ([2]; Day 0, in the presence of air): 0.14%
- N-demethyl-derivative of CDB-4124 ([2]; Day 0, in the presence of air): 0.02%
- Impurity ([2]; Day 1, in the presence of air): 0.14%
- N-demethyl-derivative of CDB-4124 ([2]; Day 1, in the presence of air): 0.02%
- Impurity ([2]; Day 2, in the presence of air): 0.14%
- N-demethyl-derivative of CDB-4124 ([2]; Day 2, in the presence of air): 0.02%
- Impurity ([2]; Day 6, in the presence of air): 0.15%
- N-demethyl-derivative of CDB-4124 ([2]; Day 6, in the presence of air): 0.02%
- Impurity ([2]; Day 10, in the presence of air): 0.17%
- N-demethyl-derivative of CDB-4124 ([2]; Day 10, in the presence of air): 0.03%
- Impurity, Σ (increase Day 0 to Day 10) [2]: 0.03%
- N-demethyl-derivative of CDB-4124, Σ (increase Day 0 to Day 10) [2]: 0.01%
- change of mass as the degree of humidity was increased [3]: barely changed

SMILES: COCC(=O)[C@@]1(OC(C)=O)CC[C@H]2[C@@H]3CCC4=CC(=O)CCC4=C3[C@@H](c3ccc(N(C)C)cc3)C[C@@]21C [Amorphous form, 17α-acetoxy-21-methoxy-11β-[4-N,N-dimethylaminophenyl]-19-norpregna-4,9-diene-3,20-dione, reference compound]
- Impurity ([2]; Day 0, in the presence of air): 0.87%
- N-demethyl-derivative of CDB-4124 ([2]; Day 0, in the presence of air): 0.15%
- Impurity ([2]; Day 1, in the presence of air): 0.97%
- N-demethyl-derivative of CDB-4124 ([2]; Day 1, in the presence of air): 0.21%
- Impurity ([2]; Day 2, in the presence of air): 1.03%
- N-demethyl-derivative of CDB-4124 ([2]; Day 2, in the presence of air): 0.25%
- Impurity ([2]; Day 6, in the presence of air): 1.63%
- N-demethyl-derivative of CDB-4124 ([2]; Day 6, in the presence of air): 0.55%
- Impurity ([2]; Day 10, in the presence of air): 1.97%
- N-demethyl-derivative of CDB-4124 ([2]; Day 10, in the presence of air): 0.73%
- Impurity, Σ (increase Day 0 to Day 10) [2]: 1.1%
- N-demethyl-derivative of CDB-4124, Σ (increase Day 0 to Day 10) [2]: 0.58%
